Measurements from patent US20250186379A1, “METHODS AND AGENTS FOR DECREASING INSULIN RESISTANCE” (Whitehead Institute for Biomedical Research, priority 2021, published 2025).
Like-named read-outs stand apart in the source and are kept apart here.

Experiments:
[1] = cited from earlier work
[2] = test system: lipogenic and gluconeogenesis genes (FASN, PCK1); assay: Expression of lipogenic and gluconeogenesis genes (RNA-seq, RT-qPCR) in HepG2 cells; type: cell-based, human
Description: RNA was extracted using TRIzol™ reagent (Thermo Fisher Scientific, 15596026) following the manufacturer's instructions. cDNA synthesis was performed using qScript cDNA Supermix (QuantaBio, 95048-500) according to the manufacturer's instructions, using 1000 ng RNA as starting material.
qPCR was performed on a Thermo Fisher Scientific QuantStudio 6 machine using Fast SYBR™ Green Master Mix (Thermo Fisher, 4385618) and primers (listed below) according to the manufacturer's instructions. Expression data is presented after calculating the relative expression compared with the housekeeping gene RPLP0, using the equation Relative Quantification (RQ)=100/(2^(Target Gene Ct—RPLP0 Ct). When data is reported relative to a sample condition, the condition of reference was set as 1 and the data of the other conditions were reported as a ratio (condition/condition of reference).
RNA sequencing was performed by the Whitehead Institute Genome Technology Core. Libraries were prepared using the KAPA HyperPrep stranded RNA kit (Roche, KK8540) following manufacturer's instructions. Samples were sequenced on a HiSeq2500 in High-Output mode generating 50 bases, single-end reads.
RNA-sequencing (RNA-seq) bioinformatics analysis was performed on the Whitehead High-Performance Computing Facility using the nf-core RNA-seq pipeline v1.4.2^13 with Nextflow v20.04.1. Quality control of .fastq files was performed with FastQC v0.11.8. The reads were single-end and the strandedness was set to reverse. Low quality sequences were trimmed using Trim Galore!v0.6.4. Alignment was performed against the hg19 genome assembly using STAR v2.6.1d^17 and duplicates were marked using Picard MarkDuplicates v2.21.1. Quantification of transcripts was performed using featureCounts v1.6.4^18. Differential expression analysis was performed using edgeR v3.26.5^19. deepTools v3.3.1^20, dupRadar v1.14.0^21, Qualimap v.2.2.2-dev^22, and MultiQC v1.7 were used for quality control. […]

HepG2 cells = assay: Stable isotope tracing for lipogenesis in HepG2 cells; type: cell-based, human
Description: To wash out insulin, cells were washed with EMEM (ATCC 30-2003) seven times, including: three quick washes, three 5-minute washes and a long 20 minute-wash in EMEM at 37° C. Cells were then cultured in EMEM supplemented with 1 mM Sodium acetate-^13C2(Sigma Aldrich, 282014) and with either 0 nM insulin or 1 nM insulin for 36 hours. Media was replenished after 24 hours. Cells were then processed for metabolite isolation (see below).
Metabolite isolation from HepG2 cells: cells were washed in ice-cold PBS (Life Technologies, AM9625), 500 μl of cold 80% MeOH (shared by the Metabolite Profiling Core Facility) was added per well of a 6-well plate and the plate was placed at −80° C. for at least 15 minutes. Following the −80 incubation, the plate was scraped on dry ice and the solution was transferred to a 1.5 ml tube and then vortexed for 5 minutes. To remove cellular debris, the samples were centrifuged at maximum speed for 10 minutes at 4° C. and the supernatant was transferred to a new 1.5 mL tube on dry ice. To remove solvents, the samples were lyophilized using Refrigerated CentriVap Benchtop Vacuum Concentrator connected to a CentriVap-105 Cold Trap (Labconco). Metabolite pellets were re-suspended in LC-MS grade water (ThermoFisher) and vortexed for 10 minutes at 4° C. Samples were centrifuged at 16,000 g for 10 minutes at 4° C. and supernatant was moved into LC-MS vials. […]

[3] = cells exposed to pathologic levels (3 nM) of insulin for two days
[4] = insulin-sensitive HepG2 cells, 3 nM insulin 4 hours

Molecule: CN(C)C(=N)N=C(N)N [metformin, reference compound]
- concentration of metformin in the plasma of T2D patients ([1]; T2D patients (Example 1)): ~12.5 µM
- concentration of metformin in the plasma of T2D patients ([1]; T2D patients (Example 2, refs 58-60)): ~12.5 µM

Molecule: insulin: insulin (Sigma Aldrich, I9278-5ML) used for acute stimulation and chronic physiological or pathological exposure
- expression of the lipogenic gene FASN after insulin stimulation [2, 3]: unchanged
- expression of gluconeogenesis genes [2, 4]: downregulation of gluconeogenesis genes
- expression of lipogenic genes [2, 4]: upregulation of lipogenic genes
- lipogenesis after insulin stimulation (HepG2 cells; [3]): unchanged
- lipogenesis (HepG2 cells; insulin-sensitive HepG2 cells, 1 nM insulin 36 hours): increased lipogenesis
